{"source": "patent US6780421B1", "about": "“Adjuvant for a vaccine composition” (priority 1997, dated 2004)", "key": {"[1]": {"tested_on": "trivalent influenza vaccine comprising strain A/Texas, strain B/Panama and strain A/Beijing", "experiment": "Tests with a trivalent influenza vaccine", "format": "in vivo"}, "[2]": {"tested_on": "influenza virus (Strain A/Singapore)", "experiment": "Anti-HA antibody titration by inhibition of influenza virus-induced haemagglutination after subcutaneous immunization", "format": "in vivo, Balb/c mice", "conditions": "5 μg of HA, in comparison with mice which received the vaccine without adjuvant (Group A)", "method": "5 groups of 4 Balb/c mice are immunized by 3 subcutaneous injections performed on D0, D21 and D36 with the following vaccine compositions:\nGroup A: 0.3 ml of diluted strain A/Singapore monovalent influenza vaccine containing 5 μg of HA in 0.3 ml of PBS,\nGroup B: 0.3 ml of vaccine composition obtained according to Example 2,\nGroup C: 0.3 ml of vaccine composition obtained according to Example 3,\nGroup D: 0.3 ml of vaccine composition obtained according to Example 6,\nGroup E: 0.3 ml of vaccine composition obtained according to Example 7.\nIn order to perform the assays for neutralizing antibodies, the sera of mice are sampled on D21, D36 and […], and the titration of anti-HA antibodies is performed by means of the technique of inhibition of influenza virus-induced haemagglutination.\nThe titres of neutralizing antibodies in the mouse sera are presented in the form of log2 of the highest dilution inducing haemagglutination inhibition."}, "[3]": {"tested_on": "strain A/Singapore monovalent influenza vaccine", "experiment": "Induction of antibody isotypes IgG1 and IgG2 (ELISA) in adult mice", "format": "in vivo, 8- to 10-week-old female BALB/c adult mice", "conditions": "400 μg of DC chol with DOPC"}, "[4]": {"tested_on": "strain A/Singapore monovalent influenza vaccine", "experiment": "Induction of antibody isotypes (ELISA) in elderly mice", "format": "in vivo, 20 to 22-month-old mice", "conditions": "primary and secondary response", "method": "The same experiment is carried out exactly as in Example 12 but, in this instance, the mice tested are 20 to 22-month-old mice which are more difficult to stimulate."}, "[5]": {"tested_on": "strain A/Singapore monovalent influenza vaccine", "experiment": "Immunization by combined subcutaneous and intranasal administration", "format": "in vivo, BALB/c mice", "method": "Two groups of 4 BALB/c mice are immunized twice with an interval of 4 weeks with, on each occasion, the following vaccine compositions:\nGroup 3 (G3):—a vaccine composition of 300 μl injected subcutaneously comprising 4 μg of HA (in the form of strain A/Singapore monovalent influenza vaccine) combined with […] of DC chol (in the form of DC chol/DOPC liposomes), and\na vaccine composition of 50 μl administered intranasally comprising 0.25 μg of HA (in the form of strain A/Singapore monovalent influenza vaccine) combined with 6 μg of DC chol (in the form of DC chol/DOPC liposomes),\nGroup 4 (G4):—a vaccine composition of 300 μl injected subcutaneously comprising 4 μg of HA combined with 200 μg of DC chol, and\na vaccine composition of 50 μl administered intranasally comprising 0.25 μg of HA combined with 200 μg of DC chol.\nThe sera of the immunized mice are sampled 3 weeks after the booster administration and, for each mouse, the level of neutralizing antibodies is assayed by the HAI haemagglutination inhibition technique."}, "[6]": {"tested_on": "strain A/Singapore monovalent influenza vaccine", "experiment": "Immune response (HAI) as a function of the dose of DC chol", "format": "in vivo, female Balb/c mice", "conditions": "DC chol/DOPC liposomes, injected D0 and D28, sera D42"}}, "data": [{"smiles": "CC(C)CCC[C@@H](C)[C@H]1CC[C@H]2[C@@H]3CC=C4C[C@@H](OC(=O)NCCN(C)C)CC[C@]4(C)[C@H]3CC[C@]12C", "note": "[DC chol, 3β-[N-(N′,N′-dimethylaminoethane)-carbamoyl]cholesterol]", "values": [{"measurement": "adjuvant power with trivalent influenza vaccine", "setting": "[1]", "value": "adjuvant power"}, {"measurement": "level of anti-HA antibodies (HAI)", "setting": "[2]", "value": "markedly higher"}, {"measurement": "IgG2a produced (ELISA)", "setting": "[3]", "value": "large increase"}, {"measurement": "adjuvant effect on IgG1 and IgG2 produced (ELISA)", "setting": "[3]; primary and secondary response, in comparison to aluminium hydroxide", "value": "adjuvant effect"}, {"measurement": "adjuvant effect on IgG1 and IgG2 produced (ELISA), in particular IgG2a", "setting": "[4]", "value": "adjuvant effect"}, {"measurement": "number of cells secreting IgG and IgA in the lungs (ELISPOT): dose effect", "setting": "[5]; 6 versus 200 μg of DC chol", "value": "identical dose effect"}, {"measurement": "ratio of specific IgG (or IgA) to total IgG (or IgA) in nasopharyngeal lavage fluids: dose effect", "setting": "[5]; 6 versus 200 μg of DC chol", "value": "identical dose effect"}, {"measurement": "serum IgG measured by ELISA: dose effect", "setting": "[5]; 6 versus 200 μg of DC chol", "value": "identical dose effect"}, {"measurement": "level of neutralizing antibodies (HAI): effect of the dose of DC chol", "setting": "[5]; dose of DC chol from 6 to 200 μg, mixed subcutaneous and intranasal", "value": "enables the immune response to be increased"}, {"measurement": "level of neutralizing antibodies (HAI): adjuvant effect", "setting": "[5]; mixed subcutaneous and intranasal administration", "value": "adjuvant effect"}, {"measurement": "dose of DC chol at which the maximum benefit of the adjuvant effect is obtained (HAI titre)", "setting": "[6]", "value": "above 100 μg of DC chol/dose"}]}]}
